Results as given in patent US12281161B2, “Polypeptides and uses thereof” (TRUSTEES OF BOSTON UNIVERSITY, priority 2021, dated 2025).
Where a SMILES comes first, the peptide text is derived from it. [ ]: non-standard residue; d: D form. The star is where a group is joined. Dolaproine = CO[C@@H]([C@@H]1CCCN1)[C@@H](C)C(=O)O; Dil = CC[C@H](C)[C@H](NC)[C@@H](CC(=O)O)OC; X1 = C[C@@H](N*)[C@@H](O)c1ccccc1; NMeV = CN[C@H](C(=O)O)C(C)C

B1: AFC (conjugate)
heavy: EVQLQQSGPDLVKPGASMKISCKASGYSFTDYTMHWVKQSHGKNFEWIGLINPYNDGTTYNQKFKGKATLTVDKSSSTAYMELLSLTSEDSAVYYCASLDYWGQGTSVTVSSAKTTPPSVYPLAPGSAAQTNSMVTLGCLVKGYFPEPVTVTWNSGSLSSGVHTFPAVLQSDLYTLSSSVTVPSSTWPSETVTCNVAHPASSTKVDKKIVPRDCGCKPCICTVPEVSSVFIFPPKPKDVLTITLTPKVTCVVVDISKDDPEVQFSWFVDDVEVHTAQTQPREEQFNSTFRSVSELPIMHQDWLNGKEFKCRVNSAAFPAPIEKTISKTKGRPKAPQVYTIPPPKEQMAKDKVSLTCMITDFFPEDITVEWQWNGQPAENYKNTQPIMDTDGSYFVYSKLNVQKSNWEAGNTFTCSVLHEGLHNHHTEKSLSHSPGKGGGGGMKLKKIKSVLKKIKSVLKKIKSVLKKIKSVVGER
light: DVVMTQTPLSLPVSLGDQASISCRSSQSLVHSSGNTYLHWYLQKPGQSPKLLIYKVSNRFSGVPDRFSGSGSGTDFTLKISRVEAEDLGVYFCSQSTHVPYTFGGGTKLEIKRADAAPTVSIFPPSSEQLTSGGASVVCFLNNFYPKDINVKWKIDGSERQNGVLNSWTDQDSKDSTYSMSSTLTLTKDEYERHNSYTCEATHKTSTSPIVKSFNRNEC
peptide: MKLEEIVSELEEIVSELEEIVKELEEIVYEVGER

How the values were obtained:
A549 = experiment: in vitro toxicity of αHER2-P3 based ADC; details: A549, 72 h, up to 10 μg/ml ADC (equivalent to 100 ng/ml MMAE)
Procedure: (§6) The toxicity of the new ADC was investigated in vitro in the HER2-positive cell lines: SKBR-3 and A549. We treated the cells with up to 10 μg/ml of ADC (equivalent to 100 ng/ml of MMAE) along with native antibodies and free drug at equivalent concentrations.

SKBR-3 = experiment: in vitro toxicity of αHER2-P3 based ADC; details: SKBR-3, 72 h, up to 10 μg/ml ADC (equivalent to 100 ng/ml MMAE)
Procedure: as §6

BEAS-2B = experiment: in vitro cytotoxicity (MTT); assay type: cell-based, human
Procedure: (§1) We utilized two different incubation methods.
(§2) We then incubated the human cell lines with ADC, and equivalent concentrations of MMAE and native Ab for both 48 hours and 72 hours, the results of which can be seen in FIG. 13A-13E. We expected the results to correlate with the GPR87 expression we observed by flow cytometry. For the normal cell lines, this was the case. As detailed in FIG. 14, the line that was most sensitive to the ADC were the NHLFs, followed by the BEAS-2Bs, and the line with the lowest GPR87 expression, the HUVECs, had the highest IC50 after 72 hours. However, both the NSCLC cell lines had relatively high IC50s given the GPR87 expression status of these lines.
(§3) Standard cytotoxicity assays, like the MTT assays ran here, measure or rather, approximate the cell number at an end point and compare to control untreated cells. Effectively what is measured is a comparison between growth rates. When comparing the efficacy of a drug, particularly a mitotic inhibitor, among different cell lines, division rate differences due to biology, media additives, or seeding density can have a dramatic effect on the IC50, an issue brought up by Hafner et al. They reported with both modeling and in vitro assays how using the IC50 as a metric can actually mask the true mechanism of a drug, for example the microtubule inhibitor paclitaxel. […] GR values indicate whether a drug inhibits growth (0<GR<1), is cytostatic (GR=0) or cytotoxic (GR<0). To calculate this parameter, one needs cell count data for at least two different time points and compares experimental growth rates to the growth rate of control cells. […] Consequently, we reviewed the data at our two time points to perform a similar analysis. We plated at the same seeding density for both the 48 and 72 hour time points. As MTT is an endpoint assay rather than a kinetic assay like MTS, we can use MTT signal as a proxy for cell count. […] Therefore, we excluded this cell line from our analysis. We are technically assessing the effect the ADC or equivalent MMAE has on the growth rate of cells at 60 hours, as we are measuring at t=x±delta t, with x being 60 and delta t being 12 hours. Ideally, we would assess an earlier time point or even multiple time points. […] (FIGS. 19A-19D). Conversely, both NCI-H520 and NCI-H358 are cytotoxic (GR<0) at higher concentrations of ADC at this time point. […] While the GR50 data is still not in agreement with GPR87 expression, it does indicate that this type of analysis at other, earlier, time points is useful in assessing the dynamics of ADC and MMAE cytotoxicity in these cell lines.

NHLF = experiment: in vitro cytotoxicity (MTT); assay type: cell-based, human
Procedure: as §1, §2, §3

NCI-H520 [1] = experiment: in vitro cytotoxicity (MTT); assay type: cell-based, human; details: NCI-H520
Procedure: as §1, §2
In comparison, NCI-H358 and NCI-H520 see approximately a 4-fold or 2-fold decrease in IC50, respectively, between the two time points. On the other hand, the NCI-H520 line has almost a 10-fold increase in MMAE IC50 at 72 hours compared to 48 hours. The results are likely because the cell lines are different sizes and morphologies and therefore are at different confluencies when plated at the same number of cells per well and are therefore likely to be in different parts of their log growth phase during treatment. For example, the NSCLC lines are typically at very low confluency at a plating density of 5,000 cells per well and may not reach log phase growth until later in the assay. As MMAE affects actively dividing cells, this will affect the results of the assay. While 72 hours was not the optimized end time point for all five cell lines, in order to have a standardized cell plating density, and therefore same ADC:cell ratio, going past 72 hours for some of the cell lines would lead to confluency or death in untreated control cells, which would also confound results. Thus, we incubated the two NSCLC lines for longer periods of time to allow the control cells to become more confluent by the assay endpoint, and to see how this would affect the ADC IC50.
as §3

NIH-3T3 = experiment: in vitro cytotoxicity, negative control line; details: NIH-3T3, up to 10 μg/ml ADC or equivalent concentrations, 72 hours
Procedure: We incubated NIH-3T3s with up to 10 μg/ml of ADC (67 nM, equivalent to 96 ng/ml of MMAE) along with the native antibody and MMAE alone at equivalent concentrations.

NCI-H226 = experiment: preliminary toxicity study of MMAE in NSCLC line; assay type: cell-based, human
Text: (§4) There are various linker chemistries for ADCs in use clinically and being investigated, as described in Chapter One. A common motif in ADCs is the valine-citrulline dipeptide which is recognized by human Cathepsin B, a lysosomal enzyme. The full motif typically used is valine-citrulline-p-aminobenzylcarbamate-monomethyl auristin E (vc-MMAE). […] The vc-MMAE structure is used in several FDA approved ADCs (brentuximab vedotin, polatuzumab vedotin, enfortumab vedotin) which target both hematologic and solid tumors.

NCI-H520 [2] = experiment: preliminary toxicity study of MMAE in NSCLC line; assay type: cell-based, human
Text: as §4

[3] = test system: stage four mucinous lung adenocarcinoma patient derived xenograft (PDX); experiment: preliminary in vivo trafficking of AFC, IVIS imaging of PDX tumor bearing mouse; details: 24 hours after tail injection at 2.5 mg/kg
Procedure: We had access to a stage four mucinous lung adenocarcinoma patient derived xenograft (PDX) model. We assessed the GPR87 positivity in the tumor and found it to be positive for GPR87. (FIG. 19A) We ran a preliminary study using the AFC to determine whether the AFC would traffic to the tumor in vivo. Twenty-four hours following injection in the tail at 2.5 mg/kg, the tail, tumor, and major organs were collected and imaged with an IVIS system. […] (FIG. 19B) We moved forward with a preliminary study of the AFC in PDX tumor bearing NSG mice. Four mice were injected with 10 mg/kg of AFC once the tumor reached approximately 200-300 mm^3 and blood was drawn at 4 hours, 3 days, and 2 weeks. The mice were intended to be kept for 2 weeks, but one animal had to be euthanized at day 3 due to tumor size. At the 2-week time point, we euthanized the other animals and harvested the organs. The plasma and organ AFC levels were analyzed by a custom ELISA which detects intact AFC, as described in Chapter Four. The results are seen in FIG. 20A. […] The Ab readout detected a higher concentration of Ab than AFC, however, the general trend of clearance is maintained. […] Whereas we detect <1 μg/ml of AFC at 3 days by either AFC or Ab readout, levels above 10 μg/ml have been reported with similar ADC DAR ratio (˜2) and dose (10 mg/kg). […]

NCI-H520 [4] = experiment: internalization of AFC, confocal colocalization with EEA1 / LAMP1; assay type: cell-based, human; details: NCI-H520, 3 μg/ml, 30 minutes and 1 hour
Procedure: (§5) The GPR87 receptor is a G-protein coupled receptor (GPCR), a class of receptors which are activated by an extracellular ligand, initiating activation of associated intracellular G proteins for downstream signaling. Following activation, GPCRs are often internalized and recycled to prevent prolonged stimulation. […] Therefore, we wanted to confirm the uptake of our αGPR87 AFC in the two GPR87 high expressing NSCLC cell lines, NCI-H358 and NCI-H520. We cocultured the cells with 3 μg/ml of AFC for either 30 minutes or 1 hour and fixed and permeabilized the cells before immunofluorescently staining for either the early endosomal marker EEA1 or the lysosomal marker LAMP1. Shown in FIG. 11 are the images from these studies with the AFC signal, either the EEA1 or LAMP1 signal, and DAPI. The merged images are shown as well as the AFC and either EEA1 or LAMP1 signals merged, with colocalization. […] To investigate this further, we increased the concentration of AFC to 10 μg/ml and increased the incubation times to 1, 2, and 4 hours. […] By 2 hours, the AFC now is highly colocalized with the lysosomes and further colocalizes by the 4-hour timepoint while also showing less of a membranous staining pattern. From these analyses, we can determine that the AFC is indeed internalized by the human NSCLC cancer cell lines NCI-H520 and NCI-H358, albeit with different apparent kinetics.

NCI-H358 = experiment: as above; assay type: cell-based, human; details: NCI-H358, 3 or 10 μg/ml, up to 4 hours
Procedure: as §5

[5] = preliminary AFC clearance and biodistribution in PDX tumor bearing NSG mice, ELISA; assay type: in vivo; details: 10 mg/kg
Procedure: We had access to a stage four mucinous lung adenocarcinoma patient derived xenograft (PDX) model. We assessed the GPR87 positivity in the tumor and found it to be positive for GPR87. (FIG. 19A) We ran a preliminary study using the AFC to determine whether the AFC would traffic to the tumor in vivo. Twenty-four hours following injection in the tail at 2.5 mg/kg, the tail, tumor, and major organs were collected and imaged with an IVIS system. […] (FIG. 19B) We moved forward with a preliminary study of the AFC in PDX tumor bearing NSG mice. Four mice were injected with 10 mg/kg of AFC once the tumor reached approximately 200-300 mm^3 and blood was drawn at 4 hours, 3 days, and 2 weeks. The mice were intended to be kept for 2 weeks, but one animal had to be euthanized at day 3 due to tumor size. At the 2-week time point, we euthanized the other animals and harvested the organs. The plasma and organ AFC levels were analyzed by a custom ELISA which detects intact AFC, as described in Chapter Four. The results are seen in FIG. 20A. […] We also ran an ELISA with an anti-mouse IgG secondary to determine the total Ab concentrations and assess whether the AFC was being cleared or was not stable (FIG. 20B). The Ab readout detected a higher concentration of Ab than AFC, however, the general trend of clearance is maintained. The concentration even by 3 days is markedly low for our AFC. Whereas we detect <1 μg/ml of AFC at 3 days by either AFC or Ab readout, levels above 10 μg/ml have been reported with similar ADC DAR ratio (˜2) and dose (10 mg/kg). However we are utilizing NSG mice to facilitate the PDX model. It has been reported that NSG mice have enhanced clearance rates of both antibodies and ADCs. However, even in comparison to the clearance rates in NSG mice noted by Li et al., AFC clearance is fast.
We also analyzed the organs at the 3 day and 2 week time point with an ELISA (FIGS. 20C-20D).

[6] = AFC concentration in blood plasma of Balb/c mice, ELISA; assay type: in vivo; details: 10 mg/kg, samples at 1 hour, 7 and 14 days
Procedure: To make sure that the coiled-coil has no significant effect on antibody clearance, we performed a preliminary study of AFC concentration in blood plasma (FIG. 33). 10 mg/kg AFC was injected into two Balb/c mice. Blood samples were collected at 1 hour, 7 and 14 days and examined for AFC concentration by ELISA assay.

Molecule	cell viability (A549) [%]	cell viability (SKBR-3) [%]	GR50 (BEAS-2B)	GR50 (NHLF)	increase in IC50 at 72 hours compared to 48 hours (NCI-H520 [1]) [fold]	cytotoxicity (NIH-3T3)	IC50 (NCI-H226) [nM]	IC50 (NCI-H520 [2]) [nM]	fluorescence of tail, tumor and major organs [3]	internalization (NCI-H520 [4])	internalization (NCI-H358)	plasma concentration at 3 days ([5]; by either AFC or Ab readout) [ng/mL]	concentration in tumor and organs ([5]; compared to liver, kidney, spleen, heart and lung, preliminary)	clearance ([5]; plasma at 4 hours, 3 days, 2 weeks)	AFC concentration in plasma [6]
CC[C@H](C)[C@@H]([C@@H](CC(=O)N1CCC[C@H]1[C@H](OC)[C@@H](C)C(=O)N[C@H](C)[C@@H](O)c1ccccc1)OC)N(C)C(=O)[C@@H](NC(=O)[C@@H](NC)C(C)C)C(C)C [MMAE, Monomethyl auristatin E, reference compound] (H-[NMeV]V[Dil][Dolaproine]-X1)	20	20	cannot be calculated	do not reach that value	~10	highly toxic	0.294	0.042	–	–	–	–	–	–	–
B1	–	–	–	–	–	–	–	–	tail (injection site) and tumor both showed high fluorescence, with little fluorescence in the major organs	internalized	internalized	< 1000	highest in the tumor at 3 days and at 2 weeks	rapidly cleared	A small amount of AFC was detected in plasma after 7 days
